# Experimental data published in patent publication US20240343704A1, “HALO-SUBSTITUTED AMINO PYRIDINE COMPOUNDS AS INHIBITORS OF THE HAEMATOPOIETIC PROGENITOR KINASE 1 (HPK1)” (priority 2021, published 2024).
# Target: T1, Recombinant (1-346) HPK1 (h) (Homo sapiens, UniProt Q92918)
# T1 construct: Recombinant (1-346) HPK1 (h) is incubated with 8 mM MOPS pH 7.0
# T1 sequence (Q92918 1-346): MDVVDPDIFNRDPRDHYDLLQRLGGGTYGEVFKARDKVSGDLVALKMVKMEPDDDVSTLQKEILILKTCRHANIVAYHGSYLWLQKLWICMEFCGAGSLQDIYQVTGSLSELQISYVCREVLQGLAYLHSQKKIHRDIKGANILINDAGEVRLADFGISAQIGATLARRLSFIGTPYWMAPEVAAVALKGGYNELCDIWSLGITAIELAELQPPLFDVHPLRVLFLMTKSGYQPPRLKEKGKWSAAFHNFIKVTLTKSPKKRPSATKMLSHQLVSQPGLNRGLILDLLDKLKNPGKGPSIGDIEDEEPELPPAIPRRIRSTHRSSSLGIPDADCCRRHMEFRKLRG
# Assay: HPK1 Human STE Kinase Enzymatic Radiometric Assay
# Format: biochemical
# Settings: read-out: HPK1 IC50 nM Range*
# Experimental: A stock solution of 10 mM of test compound is prepared in DMSO. The compound plate was prepared by 3-fold and 9-point serial dilutions. […] The reaction is initiated by The addition of the Mg/ATP mix. After incubation for 40 minutes at RT, the reaction is stopped by the addition of phosphoric acid to a concentration of 0.5%.
row,SMILES,IC50 [nM]
1,"CN(C)Cc1c(N2CCOCC2)ccc(-c2cc(-c3ccc4c(c3)CCNC4=O)c(N)nc2F)c1F [I-606, 6-(2-amino-5-(3-((dimethylamino)methyl)-2-fluoro-4-morpholinophenyl)-6-fluropyridin-3-yl)-3,4-dihydroisoquinolin-1(2H)-one]",11 to 100
2,"CN(C)Cc1c(N2CCOCC2)ccc(-c2cc(-c3cc4c(cc3F)C(=O)NCC4)c(N)nc2F)c1F [I-607, 6-(2-amino-5-(3-((dimethylamino)methyl)-2-fluoro-4-morpholinophenyl)-6-fluoropyridin-3-yl)-7-fluoro-3,4-dihydroisoquinolin-1(2H)-one]",11 to 100
3,"Nc1nc(F)c(-c2ccc(N3CCOCC3)c(CN3CCC3)c2F)cc1-c1cc2c(cc1F)C(=O)NCC2 [I-608, 6-(2-amino-5-(3-(azetidin-1-ylmethyl)-2-fluoro-morpholinophenyl)-6-fluoropyridin-3-yl)-7-fluoro-3,4-dihydroisoquinolin-1(2H)-one]",11 to 100
4,"CCN(C)Cc1c(N2CCOCC2)ccc(-c2cc(-c3ccc4c(c3)CCNC4=O)c(N)nc2F)c1F [I-610, 6-(2-amino-5-(3-((ethyl(methyl)amino)methyl)-2-fluoro-4-morpholinophenyl)-6-fluoropyridin-3-yl)-3,4-dihydroisoquinolin-1(2H)-one]",11 to 100
5,"CCN(C)Cc1c(N2CCOCC2)ccc(-c2cc(-c3cc4c(cc3F)C(=O)NCC4)c(N)nc2F)c1F [I-611, 6-(2-amino-5-(3-((ethyl(methyl)amino)methyl)-2-fluoro-4-morpholinophenyl)-6-fluoropyridin-3-yl)-7-fluoro-3,4-dihydroisoquinolin-1(2H)-one]",11 to 100
6,"CN(C)Cc1cc(-c2cc(-c3ccc4c(c3)CCNC4=O)c(N)nc2F)cnc1N1CCOCC1 [I-612, 6-(6-amino-5′-((dimethylamino)methyl)-2-fluoro-6′-morpholino-[3,3′-bipyridin]-5-yl)-3,4-dihydroisoquinolin-1(2H)-one]",11 to 100
7,"CN(C)Cc1cc(-c2cc(-c3ccc4c(c3)CCNC4=O)c(N)nc2F)ncc1N1CCOCC1 [I-613, 6-(6′-amino-4-((dimethylamino)methyl)-2′-fluoro-5-morpholino-[2,3′-bipyridin]-5′-yl)-3,4-dihydroisoquinolin-1(2H)-one]",11 to 100
8,"CC(C)N(C)Cc1cc(-c2cc(-c3ccc4c(c3)CCNC4=O)c(N)nc2F)ccc1N1CCOCC1 [I-614, 6-(2-amino-6-fluoro-5-(3-((isopropyl(methyl)amino)methyl)-4-morpholinoophenyl)pyridin-3-yl)-3,4-dihydroisoquinolin-1(2H)-one]",11 to 100
9,"CCN(CC)Cc1cc(-c2cc(-c3ccc4c(c3)CCNC4=O)c(N)nc2F)ccc1N1CCOCC1 [I-615, 6-(2-amino-5-(3-((diethylamino)methyl)-4-morpholinophenyl)-6-fluoropyridin-3-yl)-3,4-dihydroisoquinolin-1(2H)-one]",0.1 to 10
10,"CN(Cc1cc(-c2cc(-c3ccc4c(c3)CCNC4=O)c(N)nc2F)ccc1N1CCOCC1)CC1CCCO1 (stereo not drawn) [I-616, 6-(2-amino-6-fluoro-5-(3-((methyl((tetrahydrofuran-2-yl)methyl)amino)methyl)-4-morpholinophenyl)pyridin-3-yl)-3,4-dihydroisoquinolin-1(2H)-one]",0.1 to 10
11,"CN(C)Cc1cc(-c2cc(-c3ccc4c(c3)CCNC4=O)c(N)nc2F)ccc1F [I-617, 6-(2-amino-5-(3-((dimethylamino)methyl)-4-fluorophenyl)-6-fluoropyridin-3-yl)-3,4-dihydroisoquinolin-1(2H)-one]",11 to 100
12,"CN(C)Cc1cc(-c2cc(-c3cc4c(cc3F)C(=O)NCC4)c(N)nc2F)ccc1F [I-618, 6-(2-amino-5-(3-((dimethylamino)methyl)-4-fluorophenyl)-6-fluoropyridin-3-yl)-7-fluoro-3,4-dihydroisoquinolin-1(2H)-one]",11 to 100
13,"CN(Cc1cc(-c2cc(-c3cc4c(cc3F)C(=O)NCC4)c(N)nc2F)ccc1N1CCOCC1)CC1CCCO1 (stereo not drawn) [I-619, 6-(2-amino-6-fluoro-5-(3-((methyl((tetrahydrofuran-2-yl)methyl)amino)methyl)-4-morpholinophenyl)pyridin-3-yl)-7-fluoro-3,4-dihydroisoquinolin-1(2H)-one]",11 to 100
14,"CN(C)Cc1cc(-c2cc(-c3ccc4c(c3)CCNC4=O)c(N)nc2F)ccc1C1CCOC1 (stereo not drawn) [I-620, 6-(2-amino-5-(3-((dimethylamino)methyl)-4-(tetrahydrofuran-3-yl)phenyl)-6-fluoropyridin-3-yl)-3,4-dihydroisoquinolin-1(2H)-one]",0.1 to 10
15,"CN(C)Cc1cc(-c2cc(-c3cc4c(cc3F)C(=O)NCC4)c(N)nc2F)ccc1C1CCOC1 (stereo not drawn) [I-621, 6-(2-amino-5-(3-((dimethylamino)methyl)-4-(tetrahydrofuran-3-yl)phenyl)-6-fluoropyridin-3-yl)-7-fluoro-3,4-dihydroisoquinolin-1(2H)-one]",11 to 100
16,"CN(C)Cc1cc(-c2cc(-c3ccc4c(c3)CCNC4=O)c(N)nc2F)c(F)cc1N1CCOCC1 [I-622, 6-(2-amino-5-(5-((dimethylamino)methyl)-2-fluoro-4-morpholinophenyl)-6-fluoropyridin-3-yl)-3,4-dihydroisoquinolin-1(2H)-one]",11 to 100
17,"CN(C)Cc1cc(-c2cc(-c3ccc4c(c3)CCNC4=O)c(N)nc2F)c(F)c(F)c1N1CCOCC1 [I-623, 6-(2-amino-5-(5-((dimethylamino)methyl)-2,3-difluoro-4-morpholinophenyl)-6-fluoropyridin-3-yl)-3,4-dihydroisoquinolin-1(2H)-one]",11 to 100
18,"CC(c1cc(-c2cc(-c3ccc4c(c3)CCNC4=O)c(N)nc2F)ccc1O)N(C)C (stereo not drawn) [I-624, 6-(2-amino-5-(3-(1-(dimethylamino)ethyl)-4-hydroxyphenyl)-6-fluoropyridin-3-yl)-3,4-dihydroisoquinolin-1(2H)-one]",11 to 100
19,"CC(C)(N)c1cc(-c2cc(-c3ccc4c(c3)CCNC4=O)c(N)nc2F)ccc1F [I-625, 6-(2-amino-5-(3-(2-aminopropan-2-yl)-4-fluorophenyl)-6-fluoropyridin-3-yl)-3,4-dihydroisoquinolin-1(2H)-one]",101 to 1000
20,"Cc1c[nH]c(=O)c2ccc(-c3cc(-c4ccc(F)c(CN(C)C)c4)c(F)nc3N)cc12 [I-626, 6-(2-amino-5-(3-((dimethylamino)methyl)-4-fluorophenyl)-6-fluoropyridin-3-yl)-4-methylisoquinolin-1(2H)-one]",101 to 1000
21,"Cc1c[nH]c(=O)c2ccc(-c3cc(-c4cccc(CN(C)C)c4)c(F)nc3N)cc12 [I-627, 6-(2-amino-5-(3-((dimethylamino)methyl)phenyl)-6-fluoropyridin-3-yl)-4-methylisoquinolin-1(2H)-one]",101 to 1000
22,"Cc1c[nH]c(=O)c2ccc(-c3cc(-c4ccc5c(c4)[C@H](N(C)C)CCO5)c(F)nc3N)cc12 [I-628, (R)-6-(2-amnio-5-(4-(dimethylamino)chroman-6-yl)-6-fluoropyridin-3-yl)-4-methylisoquinolin-1(2H)-one]",11 to 100
23,"Cc1c[nH]c(=O)c2ccc(-c3cc(-c4ccc5c(c4)[C@H](N(C)C)CO5)c(F)nc3N)cc12 [I-629, (S)-6-(2-amino-5-(3-(dimethylamino)-2,3-dihydrobenzofuran-5-yl)-6-fluoropyridin-3-yl)-4-methylisoquinolin-1(2H)-one]",101 to 1000
24,"CN(C)[C@@H]1COc2ccc(-c3cc(-c4ccc5c(=O)[nH]cc(F)c5c4)c(N)nc3F)cc21 [I-630, (S)-6-(2-amino-5-(3-(dimethylamino)-2,3-dihydrobenzofuran-5-yl)-6-fluoropyridin-3-yl)-4-fluoroisoquinolin-1(2H)-one]",11 to 100
25,"CN(C)[C@@H]1CCOc2ccc(-c3cc(-c4ccc5c(=O)[nH]cc(F)c5c4)c(N)nc3F)cc21 [I-631, (R)-6-(2-amino-5-(4-(dimethylamino)chroman-6-yl)-6-fluoropyridin-3-yl)-4-fluoroisoquinolin-1(2H)-one]",11 to 100
26,"COc1ccc(-c2cc(-c3ccc4c(c3)CCNC4=O)c(N)nc2F)cc1C#N [I-632, 5-(6-amino-2-fluoro-5-(1-oxo-1,2,3,4-tetrahydroisoquinolin-6-yl)pyridin-3-yl)-2-methoxybenzonitrile]",11 to 100
27,"CCN(C)Cc1cc(-c2cc(-c3ccc4c(=O)[nH]cc(F)c4c3)c(N)nc2F)ccc1OC [I-633, 6-(2-amino-5-(3-((ethyl(methyl)amino)methyl)-4-methoxyphenyl)-6-fluoropyridin-3-yl)-4-fluoroisoquinolin-1(2H)-one]",11 to 100
28,"CCN(C)Cc1cc(-c2cc(-c3ccc4c(=O)[nH]cc(C)c4c3)c(N)nc2F)ccc1OC [I-634, 6-(2-amino-5-(3-((ethyl(methyl)amino)methyl)-4-methoxyphenyl)-6-fluoropyridin-3-yl)-4-methylisoquinolin-1(2H)-one]",11 to 100
29,"Nc1nc(F)c(-c2ccc(N3CCN(CC4CC4)CC3)cc2)cc1-c1cc(F)c2c(c1)OCCNC2=O [I-635, 8-(2-amino-5-(4-(4-(cyclopropylmethyl)piperazin-1-yl)phenyl)-6-fluoropyridin-3-yl)-6-fluoro-3,4-dihydrobenzo[f][1,4]oxazepin-5(2H)-one]",0.1 to 10
30,"CC(C)N1CCN(c2ccc(-c3cc(-c4cc(F)c5c(c4)OCCNC5=O)c(N)nc3F)cc2)CC1 [I-636, 8-(2-amino-6-fluoro-5-(4-(4-isopropylpiperazin-1-yl)phenyl)pyridin-3-yl)-6-fluoro-3,4-dihydrobenzo[f][1,4]oxazepin-5(2H)-one]",0.1 to 10
